Measured values: patent EP0497921B1, “METHOD FOR INHIBITING ENZYMATIC SYNTHESIS OF NUCLEIC ACIDS USING ISOPSORALENS” (ISAACS, Stephen T., priority 1989, dated 1991)

What was measured:
[1] = tested on: tRNA; test: Photobinding to RNA; assay type: binding; conditions: 100 µg/ml, irradiated 30 minutes; 1-10 µg treated tRNA spotted; no signal from unirradiated controls
Protocol: This example describes photobinding of ^3H-AMIP, ^3H-AMDMIP and BIOMIP to RNA. A tRNA stock was prepared at a concentration of 765 µg/ml in 1 x TE / 10 mM NaCl. Appropriate amounts of each compound were prepared in separate reaction vessels such that upon addition of 200 µl of the tRNA solution (153 µg) the final concentration of each compound was 100 µg/ml. ^3H-AMIP and […] in the experiment; the BIOMIP used was unlabelled. Each reaction vessel was then irradiated for 30 minutes at 25 °C in the CE-III device. Identical unirradiated reaction mixtures were used as controls for each compound. Following irradiation, each mixture was extracted with CHCl3 (4 x 200 µl) then precipitated (X2). The pellets were resuspended in 1 x TE and the binding levels determined as follows. For the two labelled compounds (^3H-AMDMIP and ^3H-AMIP), the nucleic acid concentration was determined optically and radioactivity measured by scintillation counting of aliquots of the stock solutions. Binding of the compounds was then calculated to be as follows:
To determine if binding of BIOMIP to tRNA has occurred, it was necessary to use a non-radioactive format which detected the biotin moiety on the compound. A commercial kit ("BluGene"; BRL) was used for this purpose. The kit instructions were followed for detection of both the control DNA (supplied with the kit) and BIOMIP treated tRNA. […]

[2] = tested on: PCR'd MACS 1555; test: Inhibition of PCR by non-psoralen compounds in the absence of light; assay type: biochemical; conditions: 30 cycles
Source text: The compounds tested were the following: 1) ethidium bromide (a Phenanthridine, see Table 1), 2) xylene cylanol (an Organic Dye, see Table 1), 3) bromphenol blue (an Organic Dye, see Table 1), 4) coumarin and 5) methylene blue (a Phenazathionium Salt, see Table 1).
A separate experiment examined PCR inhibition with coumarin and methylene blue in the absence of light. The following concentrations of methylene blue were tried: 4.3 x 10^-2, 4.3 x 10^-3, 4.3 x 10^-4 and 4.3 x 10^-5 M. Concentrations of coumarin tried included: 7 x 10^-3, 7 x 10^-4, 7 x 10^-5 and 7 x 10^-6 M. Compound was added to PCR tube containing α-^32P-dCTP and target (1 µl […].; PCR'd MACS 1555 per assay-point). PCR was carried out for 30 x cycles. Samples were loaded onto a 12% / 8 M urea gel.

Row | Compound | binding to tRNA detected via biotin moiety (BluGene kit) [1] | inhibition of PCR in the absence of light [2]
1 | 5-N-[N,N'-Dimethyl-(6-[biotinamido]-hexanoate) -1,6-hexanediamine])-methyl-isopsoralen [BIOMIP] | covalently bound to the tRNA | –
2 | O=c1ccc2ccccc2o1 [Coumarin, coumarin] | – | did not inhibit PCR at any of the concentrations tested
